Source: patent US7323044B1, “Biocidal compositions” (Troy Corporation, priority 2007, dated 2008)

Assays:
[1] = background statement; cited from earlier work
[2] = Amount of castor oil based co-solvent required to keep OBPA in solution with plasticizer; format: physicochemical; conditions: with commercial plasticizers (e.g., diisodecyl phthalate); about −13° C. to about 30° C.
Procedure: As a general rule, OBPA solutions which are transported or stored at outdoor conditions, without the benefit of dedicated heating or cooling equipment, may be exposed to temperatures in the range of about −13° C. to about 30° C. […] For OBPA solutions which will be transported or stored at outdoor conditions, we prefer that the weight ratio of OBPA to the solvent is about 0.12 or less in the present invention, more preferably in the range of about 0.083 to about 0.12, and most preferably about 0.10. For OBPA solutions which will be temperature-controlled during shipment and storage, the invention can be successfully practiced over a broader range of OBPA to solvent weight ratio.

c1ccc2c(c1)Oc1ccccc1[As]2O[As]1c2ccccc2Oc2ccccc21 [OBPA, 10,10′-oxybisphenoxarsine]
Solubility of OBPA in plasticizers currently favored for manufacturing flexible PVC [1]: less than 1 wt %
Castor oil based co-solvent required to keep 1 gram of OBPA in solution [2]: at least 8 grams
